What was measured:
ABA-responsive genes = assay: Quantitative RT-PCR of ABA-responsive genes in Arabidopsis; assay type: in vivo
Protocol: FIG. 9. LC66C6 induces numerous ABA-responsive genes. […] Ten-day old seedlings were treated with carrier solvent (DMSO) or either 25 μM ABA, pyrabactin or LC66C6 for 8 hours. Total RNA was then prepared labeled and hybridized to ATH1 microarrays. Data plotted are log 2 transformed average expression values for ˜13K probes that were detectable across all experiments. Data shown are averages determined from triplicate biological replicates. (C) and (D) show the expression of a reporter gene in different plant tissues after treatment with vehicle (DMSO), pyrabactin, LC66C6, or (+)-ABA.
Total RNA was isolated using Plant RNA purification reagent (Invitrogen, USA) according to the manufacturer's instructions. cDNA was synthesized from 1 μg of total RNA using the QantiTec reverse transcription kit (Qiagen, USA). Real-time PCR using Maxima® SYBR Green/Fluorescein qPCR Master Mix (Fermentas) was performed with the iQ5 real-time PCR detection system (Bio-Rad, Hercules, Calif.). The relative amounts of target mRNAs were determined using the relative standard curve method and were normalized by relative amount of internal control mRNA. Biological triplicate experiments were performed.

Arabidopsis seeds = settings: pyr1 single mutant; Park et al. 2009; cited from earlier work
PYR/PYL receptors = assay: Yeast two-hybrid agonist assay (PYR/PYL receptor - PP2C HAB1 interaction); assay type: cell-based, Arabidopsis; settings: 5 uM of test chemicals
Protocol: FIG. 1. Novel ABA agonists bind to multiple PYR/PYL. (A) Chemical structure of naturally occurring (+)-ABA, its (-) analog and selected ABA agonists. (B) Yeast two-hybrid agonist assays of PYR/PYL receptor sensitivity to 5 uM of test chemicals. Specific PYR/PYL Receptors and the PP2C HAB1 are expressed as Gal4 BD or AD fusion proteins respectively, as described in the text. A previously described yeast two-hybrid system was used in high throughput screens (HTS) to identify ABA agonists (see, Peterson F C, et al. (2010) Structural basis for selective activation of ABA receptors. Nature Structural & Molecular Biology 17(9):1109-1111). In this system the agonist promoted receptor-PP2C interaction drives expression of a URA3 or HIS3 reporter gene and rescues uracil or histidine auxotrophy of parental strains (Peterson F C, et al. (2010); […], Harlow E, & Boeke J D (1996) Reverse two-hybrid and one-hybrid systems to detect dissociation of protein-protein and DNA-protein interactions. Proceedings of the National Academy of Sciences of the United States of America 93(19):10315-10320). HTS were conducted using 5 different reporter strains that express binding domain (BD) fusions to […]3 or PYL4; these were co-expressed with activation domain (AD) fusions to HAB1 (pACT-HAB1); the constructs used have been described previously (Park et al. 2009). […]

O=S(=O)(NCc1ccccn1)c1ccc(Br)c2ccccc12 [pyrabactin]
induction of MAPKKK18, RD29A, and RD29B mRNAs (ABA-responsive genes; Col and Ler ecotypes and pyr1, pyl1, ply2, pyl3 and pyl4 single mutants): did not significantly induce expression of any of the genes assayed
expression of ABF3, GBF3, NCED3, and RD29A (ABA-responsive genes; Col wild-type plants): did not induce significant expression of any genes analyzed
expression of RD29B and MAPKKK18 mRNA (ABA-responsive genes; wild-type plants): did not induce gene expression
germination of pyr1 mutant (Arabidopsis seeds): pyr1 mutant germinates
receptor selectivity in yeast two-hybrid assay (PYR/PYL receptors): much greater receptor selectivity than ABA or the new agonist LC66C6
